Measured values: US11807881B2, “Polypeptide, fusion polypeptide, and antibiotic against gram-negative bacteria comprising same” (priority 2020, dated 2023)

B1: LNT102: endolysin LNT101 variant with 15 amino acid mutations, SEQ ID NO: 6, purified with 6× His tag (protein)
chain: MGTVLKRGDRGSAVEDLQMKLNVAGYNLSADGIFGGDTEKAVRDVQAGAGLVVDGKVGPKTLYAIAKSATVPAKWEAIPFPTANKSRSAAMPTLNAVGAMTGVDSRLLATFASIESAFDYTVKAKTSSATGWFQFLDATWDDMIKAYGSKYGIPKDPTRALRKDPRANALMGAEFIKGNAAVLRPVINREPSDTDLYLAHFLGAGGAKKFLSADQKTLGEVLFPKPAKANPSIFSNKGVPRTLAEIYKLFEDKVSKHRA
modifications: 6xHis tag; synthetic_Endolysin LNT102
B2: CecA-LNT101: fusion polypeptide in which Cecropin A was fused to endolysin LNT101; SEQ ID NO: 16 used in the tests (protein)
chain: MASKWKLFKKIEKVGQNIRDGIIKAGPAVAVVGQATQIAKGSGSGSMGTVLKRGDRGSAVEDLQMKLRVAGYAVSADGIFGGDTEKAVRDFQASKALVVDGKVGPATLAELAKSATVPAKWEAIPFPTANKSRSAAMPTLNAVGAMTGTDSRLLATFASIESAFDYTVKASTSSATGWFQFLDATWDDMIKAHGSKYGIPKDPTRALRKDPRANALMGAEFLKGNAAVLRPVINREPSDTDLYLAHFLGAGGAKKFLSADQKTLGEVLFPKPAKANPSIFSNKGVPRTLAEIYKLFEDKVSKHRALEHHHHHH
modifications: synthetic_Fusion Polypeptide CecA-LNT101 with MAS, His tag, and extra sequence

Legend:
P. aeruginosa = assay: MIC of polymyxin-based antibiotics with LNT101 (broth microdilution); format: cell-based; details: for reduction of MIC of the polymyxin-based antibiotic in combination with LNT101: LNT101 endolysin 1 μM; for MIC of antibiotics: P. aeruginosa 1×10^5 CFU/ml, 37° C. 18 hours, combination with LNT101 endolysin 1 μM, otherwise PBS
Procedure: The synergy effect by treatment in combination of the polymyxin-based antibiotic having a mechanism acting on the cell membrane of bacterium and endolysin LNT101 was confirmed. Specifically, polymyxin B (32 μg/ml-0.03 μg/ml) and colistin (128 μg/ml-0.1 μg/ml) were diluted by ½ per well in a microplate, and then a LNT101 endolysin 1 μM combination treatment group and the same amount of PBS treatment group was made. In all wells, P. aeruginosa 1×10^5 CFU/ml was treated by total 100 μl. After that, they were cultured at 37° C. for 18 hours.
The MIC change of the polymyxin-based antibiotic by combination treatment of the polymyxin-based antibiotic (polymyxin B, Colistin) and LNT101 endolysin at various concentrations was confirmed, and shown in Table 3 below.

[1] = system: A. baumannii (ATCC 19606); assay: MIC of polymyxin-based antibiotics with LNT102 (broth microdilution); format: cell-based; details: + PBS or + LNT102 endolysin 1 μM, 37° C. 18 hours
gram negative bacteria = assay: MIC change of polymyxin-based antibiotics with LNT102, all strains of Table 5; format: cell-based, P. aeruginosa, A. baumannii, E. coli; details: LNT102 endolysin 1 μM; maximum over the strains of Table 5
Procedure: (§1) A synergy effect by combination treatment of a polymyxin-based antibiotic having a mechanism acting on the cell membrane of bacterium and endolysin LNT102 purified in Example 2.2 was confirmed. Specifically, after treating 4 μg/ml Polymyxin B to the 96 well microplate row A, serial dilution was performed by ½ in rows B-G. Polymyxin was not treated to the row H. After treating 8 μg/ml Colistin to the 96 well microplate row A, a combination treatment group in which LNT102 endolysin 1 μM was further treated and a PBS treatment group in the same amount were made. All wells were treated with Pseudomonas aeruginosa and Escherichia coli in an amount of 1×10^5 CFU/ml, total 100 μl, respectively. After that, they were cultured at 37° C. for 18 hours.
(§2) The MIC change of the polymyxin-based antibiotics by combination treatment of the polymyxin-base antibiotics (polymyxin B, Colistin) at various concentrations and LNT102 endolysin was measured and shown in Table 5 below.

[2] = system: Pseudomonas aeruginosa PA01; assay: Galleria mellonella Pseudomonas aeruginosa infected model, viability; format: in vivo; details: PA01 50 CFU/larva; LNT101 0.6 or 6 μg/larva, Colistin 0.5 μg/larva; observation for 72 hours
Procedure: The Pseudomonas aeruginosa killing ability of the endolysin LNT101 was also confirmed in vivo. As an animal model for the in vivo effectivity evaluation, Galleria mellonella was used. The Galleria mellonella model was divided into the healthy group (non-infection group), Pseudomonas aeruginosa infected group (drug non-administration group), 2 LNT101 administration groups in which LNT101 was administered into the infection model, Colistin administration group in which colistin was administered into the Pseudomonas aeruginosa infected model, and combination administration group in which LNT101 and colistin were administered in combination into the Pseudomonas aeruginosa infected model to progress an experiment, and 10 of Galleria mellonella per each group was used.
The Pseudomonas aeruginosa infected model was prepared by infecting Pseudomonas aeruginosa PA01 at the LD80 concentration, 50 CFU/larva, and LNT101 was administered at 0.6 μg/larva (3 mg/Kg) and 6 μg/larva (30 mg/Kg), respectively. Colistin was administered at 0.5 μg/larva (2.5 mg/Kg), and for administration in combination, Colistin at 0.5 μg/larva (2.5 mg/Kg) and LNT101 at 6 μg/larva (30 mg/Kg) were administered. […] In particular, in the LNT101 6 μg/larva (30 mg/Kg) administration group, the viability of 30% was confirmed.

E. coli(ATCC 8739) = assay: MIC of polymyxin-based antibiotics with LNT102 (broth microdilution); format: cell-based; details: + PBS or + LNT102 endolysin 1 μM, 37° C. 18 hours
Procedure: as §1, §2

[3] = system: P. aeruginosa (ATCC 27853); assay: as above; format: cell-based; details: + PBS or + LNT102 endolysin 1 μM, 37° C. 18 hours
Procedure: as §1, §2

gram negative bacterium = assay: CFU reduction evaluation on various gram negative bacterium; format: cell-based
Procedure: For this, Endolysin LNT101 and LNT102 at a concentration of 2 μM and each 1×10^6 CFU of Pseudomonas aeruginosa (PA01; ATCC 15692), Acinetobacter baumannii (ATCC 17978), Escherichia coli (ATCC 8739), Klebsiella pneumoniae (ATCC 13883), Enterobacter aerogenes (CCARM 16006), and Salmonella enteritidis (ATCC 13076) was added in reaction buffer (20 mM Tris-Cl, pH 7.5) so that the final volume was 200 μl, and it was left at 37° C. for 2 hours. In 2 hours, the number of colonies of each gram negative bacterium was confirmed, and the result was shown in FIG. 8 (in FIG. 8, PA90 represents endolysin LNT101 and mtPA90 represents endolysin LNT102, respectively).
The endolysin LNT102 at a concentration of 0.1, 0.5, 2.5 μM, and each 1×10^6 CFU of Pseudomonas aeruginosa, Acinetobacter baumannii, and Escherichia coli was added in reaction buffer (20 mM Tris-Cl, pH 7.5) so that the final volume was 200 μl, and it was left at 37° C. for 2 hours.
In order to confirm the killing ability against gram negative bacterium of the fusion polypeptide LNT103 prepared in Example 3.2, CFU reduction evaluation was performed for various gram negative bacterium. In order to perform the CFU reduction evaluation, 2 μM of each of LNT101, LNT102, and LNT103 prepared in Example 3, and 1×10^6 CFU of each of Pseudomonas aeruginosa (PA01; ATCC 15692), Acinetobacter baumannii (ATCC 17978), Escherichia coli (ATCC 8739), Klebsiella pneumoniae (ATCC 13883), and Enterobacter aerogenes (CCARM 16006) were added to reaction buffer (20 mM Tris-Cl, pH7.5) so that the final volume was 200 μl, and it was left at 37° C. for 2 hours. After that, the number of the colonies of each gram negative bacterium was confirmed to compare and evaluate the antibiotic effect of each polypeptide. As a control group, the PBS treatment group (treating PBS in the same volume as the fusion polypeptide) was used.
In addition, the same test was performed by using the fusion polypeptide LNT103, and CecA-LNT101 at a concentration of 2 μM, and the result was shown in FIG. 15. For comparison, the same test was performed for groups treated with LNT102 or PBS.
On the other hand, in order to compare the antibacterial activity in case that a protein other than endolysin (LNT102 or LNT101) was fused to Cecropin A, the killing ability against gram negative bacterium of the fusion polypeptide LNT103 and cecropin A-EGFP fusion protein (a protein in which EGFP (GenBank Accession No. AAB02572.1) having no endolysin activity by replacing LNT102 in LNT103) was evaluated. For this, the proteins were treated in an amount of 0.2 μM or 2 μM, respectively, to perform the CFU reduction test. […] In particular, it could be confirmed that the CFU Counting result for all the tested gram negative bacterium killed all bacterium treated with 0, when LNT103 2 μM was treated.
Furthermore, the killing ability against gram negative bacterium according to the concentration and/or treatment time of the fusion polypeptide LNT103 was tested. Specifically, the fusion polypeptide LNT103 at a concentration of 0.1, 0.3, 0.9, or 2.7 μM and 1×10^6 CFU of Pseudomonas aeruginosa (PA01; ATCC 15692) or Acinetobacter baumannii (ATCC 19606) were added to reaction buffer (20 mM Tris-Cl, pH7.5) so that the final volume was 200 μl, and it was left at 37° C. for 2 hours, and then the number of the colonies was confirmed, and the result was shown in A of FIG. 17.
In addition, the fusion polypeptide LNT103 at a concentration of 2 μM and 1×10^6 CFU of Pseudomonas aeruginosa (PA01; ATCC 15692) were added to reaction buffer (20 mM pH7.5) so that the final volume was 200 μl, and in 0, 20 minutes, 40 minutes and 60 minutes at 37° C., the number of the colonies was confirmed, and the result was shown in B of FIG. 17. […]

Molecule | reduction of MIC of the polymyxin-based antibiotic in combination with LNT101 (P. aeruginosa) [%] | MIC of antibiotics (P. aeruginosa) [µg/mL] | MIC of the polymyxin-based antibiotic [1] [µg/mL] | reduction of MIC of the polymyxin-based antibiotic in combination with LNT102 (gram negative bacteria) | viability of Galleria mellonella [2] | MIC of the polymyxin-based antibiotic (E. coli(ATCC 8739)) [µg/mL] | MIC of the polymyxin-based antibiotic [3] [µg/mL] | killing ability (number of colonies) (gram negative bacterium; 2 μM, 2 hours, 37° C., P. aeruginosa PA01, A. baumannii ATCC 17978, E. coli ATCC 8739, K. pneumoniae ATCC 13883, E. aerogenes CCARM 16006, S. enteritidis ATCC 13076) | killing ability (number of colonies) (gram negative bacterium; 0.1, 0.5, 2.5 μM, 30 minutes, 1 hour and 2 hours, Pseudomonas aeruginosa, Acinetobacter baumannii, Escherichia coli) | counting result (gram negative bacterium; 2 μM, all the tested bacterium (FIG. 15)) [log CFU/ml]
Colistin | 50 | 8 | 2 | reduced by 1/16 times at maximum | the viability was increased | 2 | 2 | – | – | –
polymyxin B | 50 | 4 | 0.5 | reduced by 1/16 times at maximum | – | 0.5 | 0.5 | – | – | –
B1 | – | – | – | – | – | – | – | more excellent killing ability against gram negative bacterium in the same dose-, compared to LNT101 | had the killing ability against gram negative bacterium in all the tested treatment doses and time | –
B2 | – | – | – | – | – | – | – | – | – | 0
